Here are results for 35 compounds from patent publication US5770573A, “CS-1 peptidomimetics, compositions and methods of using the same” (Cytel Corporation, priority 1995, dated 1998).

Molecules are shown by their SMILES. Numbered stars: 1 amine (or outer) side, 2 acyl side, 3 side chain; on linkers, the order of the positions; unused ones are H or OH. Square brackets hold non-standard residues; d marks the D form. Peptide text beside a SMILES is read from it. * marks the point of attachment. X20 = O=C(CCCCCO[C@@H]1O[C@H](CO)[C@@H](O)[C@H](O)[C@H]1N[*:1])[*:2]; NHOctadecyl = CCCCCCCCCCCCCCCCCCN*; Cha = N[C@@H](CC1CCCCC1)C(=O)O; X8 = CCCCCCCCCCCCCCCCCCO*; Octanoyl = CCCCCCCC(=O)*; Piperidide = C1CCN(*)CC1; PhAc = O=C(Cc1ccccc1)*; ODecyl = CCCCCCCCCCO*; Inp = O=C(O)C1CCNCC1; X4 = CCN(CC)C(=O)CO*; X5 = CCCCCCCCCCCCO*; Ahx = NCCCCCC(=O)O

For the first experiment, the target named is VLA-4 (Homo sapiens, UniProt P05556+P13612). The experiment can be described thus: In vitro binding inhibition of 51Cr-labeled Jurkat cells to solid phase-bound CS-1 compound (SEQ ID NO:1). In kind it is cell-based. On the set-up: inflammatory cells that contain the VLA-4 receptor [Jurkat cells; host or cells: Jurkat (human T lymphoblastic line).
Chain of VLA-4 (P13612 34-1032): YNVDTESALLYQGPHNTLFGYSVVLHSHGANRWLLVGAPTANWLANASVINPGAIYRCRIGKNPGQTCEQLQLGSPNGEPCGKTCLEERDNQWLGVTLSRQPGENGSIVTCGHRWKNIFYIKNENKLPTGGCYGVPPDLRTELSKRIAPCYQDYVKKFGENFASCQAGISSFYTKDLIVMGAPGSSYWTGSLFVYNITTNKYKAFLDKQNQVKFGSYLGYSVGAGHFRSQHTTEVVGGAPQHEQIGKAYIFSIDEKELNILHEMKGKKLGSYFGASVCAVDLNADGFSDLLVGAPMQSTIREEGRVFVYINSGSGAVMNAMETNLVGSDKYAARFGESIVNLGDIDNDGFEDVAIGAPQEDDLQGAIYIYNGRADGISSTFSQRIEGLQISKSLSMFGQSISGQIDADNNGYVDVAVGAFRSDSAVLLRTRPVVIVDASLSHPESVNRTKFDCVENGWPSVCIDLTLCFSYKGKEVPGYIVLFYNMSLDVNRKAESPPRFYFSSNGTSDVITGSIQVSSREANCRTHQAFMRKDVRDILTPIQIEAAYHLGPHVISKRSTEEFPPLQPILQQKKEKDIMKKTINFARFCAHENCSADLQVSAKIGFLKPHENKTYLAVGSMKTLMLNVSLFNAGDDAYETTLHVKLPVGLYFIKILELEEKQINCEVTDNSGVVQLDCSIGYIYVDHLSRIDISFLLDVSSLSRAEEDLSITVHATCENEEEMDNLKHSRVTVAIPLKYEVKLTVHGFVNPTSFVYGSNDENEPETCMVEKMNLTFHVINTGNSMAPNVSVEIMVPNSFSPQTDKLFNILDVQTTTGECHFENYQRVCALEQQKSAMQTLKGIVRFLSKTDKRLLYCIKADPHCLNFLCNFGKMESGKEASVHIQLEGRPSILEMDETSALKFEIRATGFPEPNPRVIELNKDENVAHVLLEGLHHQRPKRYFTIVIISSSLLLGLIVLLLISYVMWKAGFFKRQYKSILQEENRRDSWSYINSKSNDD
Chain of VLA-4 (P05556 21-798): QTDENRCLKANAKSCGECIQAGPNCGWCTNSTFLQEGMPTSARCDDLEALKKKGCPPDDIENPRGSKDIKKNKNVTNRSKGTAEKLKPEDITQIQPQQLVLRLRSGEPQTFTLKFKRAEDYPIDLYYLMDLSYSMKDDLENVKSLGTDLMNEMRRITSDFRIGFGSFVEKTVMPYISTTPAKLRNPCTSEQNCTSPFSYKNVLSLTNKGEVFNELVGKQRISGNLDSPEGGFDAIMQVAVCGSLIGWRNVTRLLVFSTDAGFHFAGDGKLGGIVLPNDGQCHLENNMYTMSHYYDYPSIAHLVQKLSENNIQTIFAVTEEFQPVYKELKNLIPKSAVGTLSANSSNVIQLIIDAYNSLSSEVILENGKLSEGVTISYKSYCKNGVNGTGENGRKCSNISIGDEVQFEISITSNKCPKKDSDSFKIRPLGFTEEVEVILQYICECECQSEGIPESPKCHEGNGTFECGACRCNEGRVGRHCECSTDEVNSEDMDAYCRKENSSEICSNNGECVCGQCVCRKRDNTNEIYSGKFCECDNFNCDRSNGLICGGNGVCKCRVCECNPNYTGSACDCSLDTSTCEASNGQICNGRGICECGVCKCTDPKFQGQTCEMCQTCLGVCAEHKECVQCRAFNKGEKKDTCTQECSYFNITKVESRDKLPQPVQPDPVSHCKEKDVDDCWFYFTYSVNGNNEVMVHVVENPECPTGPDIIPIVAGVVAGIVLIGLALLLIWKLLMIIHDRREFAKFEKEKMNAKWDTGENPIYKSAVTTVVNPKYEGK
Conditions: not given
Summed up: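 51Cr-labeled human Jurkat cells were preincubated with compound 30 min at about 22° C, then allowed to bind to wells coated with CS-1 peptide or CS-1-OVA for 30 min at 37° C. After washing, bound cells were lysed with SDS and counted. IC50 is the concentration halving binding, normalized to SEQ ID NO: 3.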
In the case of `CC(=O)[C@H]1C[C@@H](CC(=O)N[C@@H](CC(=O)O)C(=O)N[C@@H](Cc2ccccc2)C(=O)N2CCC[C@@H]2C(N)=O)C1(C)C` [1056.03], the “Relative Potency” value worked out at 0.
For the compound `CC(C)C[C@H](N)C(=O)N[C@@H](CC(=O)O)C(=O)N[C@@H](Cc1ccccc1)C(=O)N1CCCCC1` [1047.09] (H-Leu-Asp-Phe-Piperidide), the “Relative Potency” value turned out to be 0.01.
Same read-out and setting: for `CC(C)CC(CCCc1ccccc1)C(=O)N[C@@H](CC(=O)O)C(=O)N[C@@H](Cc1ccccc1)C(=O)N1CCC[C@@H]1C(N)=O` (some centres unmarked) [1056.14] the value was “.25”; for `CC(C)C[C@H](NC(=O)Cc1ccc(O)c(O)c1)C(=O)N[C@@H](CC(=O)O)C(=O)N[C@@H](Cc1ccccc1)C(=O)N1CCCCC1` [1019.01], 81.4.
Still for that read-out and setting: for `CC(C)C[C@@H](C(=O)N[C@@H](CC(=O)O)C(=O)N[C@@H](Cc1ccccc1)C(=O)N1CCC[C@@H]1C(N)=O)n1c(=O)[nH]c2ccccc2c1=O` [896.63] the value was 43.7; for `CCCCCCCC(=O)N[C@@H](CC(=O)O)C(=O)N[C@@H](Cc1ccccc1)C(=O)N1CCC[C@@H]1C(N)=O` [1056.12] (Octanoyl-Asp-Phe-[dP]-NH2), 0.
For the compound `CC[C@H](C)[C@H](N)C(=O)N[C@@H](CC(C)C)C(=O)N[C@@H](CC(=O)O)C(=O)N[C@H](C(=O)N1CCC[C@@H]1C(N)=O)C(C)C` [886.10], the “Relative Potency” value is on record as 5.38.
As for `CC(C)C[C@H](NC(=O)[C@@H]1CCCN1)C(=O)N[C@@H](CC(=O)O)C(=O)N[C@@H](Cc1ccccc1)C(=O)N1CCC[C@@H]1C(N)=O` [951.12] (H-PLDF[dP]-NH2), the “Relative Potency” value is 61.8.
As for `CC[C@H](C)[C@H](N)C(=O)N[C@@H](Cc1ccccc1)C(=O)N[C@@H](CC(=O)O)C(=O)N[C@H](C(=O)N1CCC[C@H]1C(N)=O)C(C)C` [926.07] (H-IFDVP-NH2), the “Relative Potency” value is “.08”.
Still for that read-out and setting: to `CC(C)C[C@H](NC(=O)C1CCCCC1)C(=O)N[C@@H](CC(=O)O)C(=O)N[C@H](C(=O)N1CCC[C@@H]1C(N)=O)C(C)C` [896.49] belongs 9.08; to `CC(C)CC(C(=O)NCc1ccccc1)C(=O)N[C@@H](CC(=O)O)C(=O)N[C@@H](Cc1ccccc1)C(=O)N1CCC[C@@H]1C(N)=O` (some centres unmarked) [1034.01], 1.96; to `CC[C@H](C)[C@H](N)C(=O)N[C@@H](CC1CCCCC1)C(=O)N[C@@H](CC(=O)O)C(=O)N[C@H](C(=O)N1CCC[C@H]1C(N)=O)C(C)C` [926.08] (H-I[Cha]DVP-NH2), “.47”.
Turning to `CC(=O)N[C@H]1[C@H](OCCCCCC(=O)N[C@@H](Cc2ccccc2)C(=O)N[C@@H](CC(C)C)C(=O)N[C@@H](CC(=O)O)C(=O)N[C@@H](Cc2ccccc2)C(=O)N2CCCCC2)O[C@H](CO)[C@@H](O)[C@@H]1O` [1063.01] (Ac-[X20]FLDF-Piperidide), the “Relative Potency” value is 40.7.
Still for that read-out and setting: to `CC(C)CN(CC(C)C)C(=O)N[C@@H](CC(=O)O)C(=O)N[C@H](C(=O)N1CCCCC1)c1ccccc1` [1027.01] belongs “.5”; to `CC(C)CN(CCCc1ccccc1)C(=O)N[C@@H](CC(=O)O)C(=O)N[C@@H](Cc1ccccc1)C(=O)N1CCCCC1` [1027.02], 0.
On the same count and under the same terms, to `CC(C)C[C@H](NC(=O)C(C)(C)C)C(=O)N[C@@H](CC(=O)O)C(=O)N[C@H](C(=O)N1CCC[C@H]1C(N)=O)C(C)C` [926.01] belongs 3.29.
On to `CC(C)C[C@H](NC(=O)CC1CCCCC1)C(=O)N[C@@H](CC(=O)O)C(=O)N[C@H](C(=O)N1CCC[C@@H]1C(N)=O)C(C)C` [896.48], for which the “Relative Potency” value was 3.76.
With `CC(C)COC(=O)N[C@@H](CC(=O)O)C(=O)N[C@@H](Cc1ccccc1)C(=O)N1CCCCC1` [1027.04], the “Relative Potency” value is given as 0.

Still in this experiment, the particulars now being: binding inhibition potency relative to standard compound of SEQ ID NO:3 = 1 (normalized IC50); about one-tenth or less assigned zero.
With `CC(C)C[C@H](NC(=O)Cc1ccccc1)C(=O)N[C@@H](CC(=O)O)C(=O)N[C@@H](Cc1ccccc1)C(=O)N1CC[N+](C)(C)CC1` [1111.08], the “Relative Potency” value is given as 218.
The same measure, in the same setting: to `CC(C)C[C@H](NC(=O)Cc1ccccc1)C(=O)N[C@@H](CC(=O)O)C(=O)N[C@@H](Cc1ccccc1)C(=O)N1CCC(C(N)=O)CC1` [1111.05] (PhAc-LDF[Inp]-NH2) belongs 942.
`CC(C)C[C@H](NC(=O)Cc1ccccc1)C(=O)N[C@@H](CC(=O)O)C(=O)N1CCc2ccccc2C1` [997.09]: the “Relative Potency” value is given as 3.13.
The same measure, in the same setting: to `CC(C)C[C@H](NC(=O)Cc1ccccc1)C(=O)N[C@@H](CP(=O)(O)O)C(=O)N[C@@H](Cc1ccccc1)C(=O)N1CCCCC1` [1026.07] belongs 0.
Same read-out and setting: for `CC(C)C[C@H](NC(=O)Cc1ccccc1)C(=O)N[C@@H](CC(=O)O)C(=O)N[C@@H](Cc1ccccc1)C(=O)NCCCO` [1051.05] the value was 25; for `CC(C)C[C@H](NC(=O)Cc1ccccc1)C(=O)N[C@@H](CC(=O)O)C(=O)N[C@@H](Cc1c[nH]c2ccccc12)C(=O)N1CCC[C@@H]1C(N)=O` [896.60] (PhAc-LDW[dP]-NH2), 131; for `CC(C)C[C@H](NC(=O)Cc1ccccc1)C(=O)N[C@@H](CC(=O)O)C(=O)N[C@@H](CO)C(=O)N1CCC[C@@H]1C(N)=O` [896.72] (PhAc-LDS[dP]-NH2), 16.9.
Same read-out and setting: to `CC(C)C[C@H](NC(=O)Cc1ccccc1)C(=O)N[C@@H](CC(=O)O)C(=O)N[C@@H](Cc1ccc(O)cc1)C(=O)N1CCC[C@@H]1C(N)=O` [896.61] (PhAc-LDY[dP]-NH2) belongs 612; to `CC(C)C[C@H](NC(=O)Cc1ccccc1)C(=O)N[C@@H](CC(=O)O)C(=O)N[C@@H](Cc1ccccc1)C(=O)N1CCN(CCOCCO)CC1` [1111.07], 510.
With `CC(C)C[C@H](NC(=O)Cc1ccccc1)C(=O)N[C@@H](CC(=O)O)C(=O)N1C(=O)N(Cc2ccccc2)C(=O)[C@@H]1Cc1ccccc1` [1047.08], the “Relative Potency” value was “.38”.
On the same count and under the same terms, for `CC(C)C[C@H](NC(=O)Cc1ccccc1)C(=O)NC(C(=O)N[C@@H](Cc1ccccc1)C(=O)N1CCCCC1)C(C(=O)O)C(=O)O` (some centres unmarked) [1026.04] the value was 2.32; for `CC(C)C[C@H](NC(=O)Cc1ccccc1)C(=O)N[C@@H](CC(=O)O)C(=O)N[C@@H](Cc1ccccc1)C(=O)N1C[C@@H](O)[C@@H](O)C1` [1070.01], 194.

Still in this experiment, the particulars now being: compared with standard 10-mer of SEQ ID NO:3.
In the case of `CCCCCCCCCCCCCCCCCCNC(=O)CCCCCNC(=O)[C@@H]1CCCN1C(=O)[C@H](Cc1ccccc1)NC(=O)[C@H](CC(=O)O)NC(=O)[C@H](CC(C)C)NC(=O)Cc1ccccc1` [Compound ID No. 1068.01, phenylacetyl-Leu-Asp-Phe-Pro-NH(CH2)5 C(O)NHC18 H37] (PhAc-LDFP[Ahx]-NHOctadecyl), the “VLA-4 binding inhibition compared in words” value is “binding inhibition similar to that exhibited by the standard 10-mer compound”.

Staying with this experiment, now noted: relative to SEQ ID NO:3 = 1; potency before the prodrug compound is enzymatically converted to an active form.
Turning to `CCN(CC)C(=O)COC(=O)C[C@H](NC(=O)[C@H](CC(C)C)NC(=O)Cc1ccccc1)C(=O)N[C@@H](Cc1ccccc1)C(=O)N1CCC[C@@H]1C(N)=O` [1068.13] (PhAc-LD(X4)F[dP]-NH2), the “Relative Potency (prodrug compound)” value amounted to 0.
Take `CCCCCCCCCCOC(=O)C[C@H](NC(=O)[C@H](CC(C)C)NC(=O)Cc1ccccc1)C(=O)N[C@@H](Cc1ccccc1)C(=O)N1CCC[C@@H]1C(N)=O` [1068.09] (PhAc-LD(ODecyl)F[dP]-NH2): the “Relative Potency (prodrug compound)” value is recorded as 0.
`CCCCCCCCCCCCOC(=O)C[C@H](NC(=O)[C@H](CC(C)C)NC(=O)Cc1ccccc1)C(=O)N[C@@H](Cc1ccccc1)C(=O)N1CCC[C@@H]1C(N)=O` [1068.10] (PhAc-LD(X5)F[dP]-NH2): the “Relative Potency (prodrug compound)” value is given as 0.
As for `CCCCCCCCCCCCCCCCCCOC(=O)C[C@H](NC(=O)[C@H](CC(C)C)NC(=O)Cc1ccccc1)C(=O)N[C@@H](Cc1ccccc1)C(=O)N1CCC[C@@H]1C(N)=O` [1068.12] (PhAc-LD(X8)F[dP]-NH2), the “Relative Potency (prodrug compound)” value is 0.
